Laboratory results published in patent US5523297A, “Inhibition of excessive phospholipase A2 activity and/or production by non-antimicrobial tetracyclines” (The Research Foundation of State University of New York, priority 1995, dated 1996).
Where two headings read alike, the source gives them in different places. Each block holds one molecule with its values, some of them ahead of it.

Key:
Format in all cases: biochemical
[1] = target: T1, recombinant human PLA2 (snpPLA2) (Homo sapiens, UniProt P14555); test: Inhibition of recombinant human PLA2, radiolabelled E. coli assay
T1 sequence (P14555 21-144): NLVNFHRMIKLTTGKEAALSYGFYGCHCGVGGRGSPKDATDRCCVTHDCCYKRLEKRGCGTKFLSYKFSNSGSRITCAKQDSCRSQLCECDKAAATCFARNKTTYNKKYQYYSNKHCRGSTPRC
Experimental: (§1) Six different chemically-modified tetracyclines, including CMT-1 (4-dedimethylaminotetracycline), CMT-2 (tetracyclinonitrile), CMT-3 (6-demethyl-6-deoxy-4-dedimethylaminotetracycline), CMT-4 (4-de-dimethylamino-7-chloro-tetracycline), CMT-5 (pyrazole analog) and CMT-6 (4-hydroxy-4-dedimethylaminotetracycline), were examined for their ability to inhibit PLA2 activity in vitro. The sources of PLA2 that were tested included recombinant human PLA2, human pancreatic and porcine pancreatic PLA2 and Naja naja PLA2. […] Various concentrations of CMTs, ranging from 5-100 μg/ml, were preincubated with the different PLA2 enzymes for 30 minutes and the mixture was tested for PLA2 activity using a known E. coli assay method (see Arthritis and Rheumatism, 34 Supp. 9: p. S160 (abst C167)).
(§2) A chemically-modified tetracycline, 4-dedimethylamino-7-dimethylaminotetracycline (CMT-10), was examined for its ability to inhibit PLA2 activity in vitro. The sources of PLA2 that were tested included were recombinant human PLA2 (snpPLA2), human pancreatic and porcine pancreatic PLA2 and Naja naja PLA2. […] Various concentrations of CMT-10, ranging from 5-100 μg/ml, were preincubated with the different PLA2 enzymes for 30 minutes and the mixture was tested for PLA2 activity using a known E. coli assay method (see Arthritis and Rheumatism, 34 Supp. 9: p. S160 (abst C167)).
(§3) In particular, [^14 C]Oleic acid-labelled Escherichia coli (strain K12 C600) were used as the substrate. This substrate has been characterized with respect to phospholipid composition and distribution of radiolabel. Reaction mixtures contained 10 mg bovine serum albumin, 2 mM CaCl2, 2.8×10^8 radiolabelled E. coli and 0.1M Tris-HCl buffer, pH 7.5 in a total volume of 1.5 ml. Reaction mixtures were incubated at 37° C. for 30 min. The reaction was terminated by filtration through a 0.45 μm Millipore filter, thereby retaining unhydrolysed E. coli membranes, and allowing the [^14 C]oleic acid bound to the BSA carrier, released as a result of PLA2 hydrolysis, to pass through the filter. Assays were performed in duplicate and values shown represent the mean of two determinations with a SD<5% of the mean. Assays were performed in substrate excess and enzyme activities were corrected for non-enzymatichydrolysis. One unit of PLA2 activity is defined as the hydrolysis of 56 pmol of phospholipid substrate (representing 1% of total E. coli phospholipid) in 30 min at 37° C.

[2] = target: T2, human pancreatic PLA2 (Homo sapiens, UniProt P04054); test: Inhibition of human pancreatic PLA2, E. coli assay
T2 construct: radiolabelled E. coli membrane hydrolysis assay
T2 sequence (P04054 23-148): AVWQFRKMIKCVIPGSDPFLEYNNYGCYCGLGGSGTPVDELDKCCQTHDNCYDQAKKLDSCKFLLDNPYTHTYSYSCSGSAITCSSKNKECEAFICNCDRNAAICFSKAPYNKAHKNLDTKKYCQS
Experimental: as §1, §2, §3

[3] = target: T3, porcine pancreatic PLA2 (Sus scrofa, UniProt P00592); test: Inhibition of porcine pancreatic PLA2, E. coli assay
T3 construct: radiolabelled E. coli membrane hydrolysis assay
T3 sequence (P00592 23-146): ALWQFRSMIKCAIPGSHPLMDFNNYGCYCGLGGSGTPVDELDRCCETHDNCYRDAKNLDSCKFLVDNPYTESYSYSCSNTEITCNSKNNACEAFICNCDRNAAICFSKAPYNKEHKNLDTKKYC
Experimental: as §1, §2, §3

[4] = concentrations of 25 μg/ml or greater
[5] = concentration required to inhibit 50% of PLA2, 30 min preincubation, read-out: IC50 (converted)

SMILES: CC1(O)c2cccc(O)c2C(=O)C2=C(O)C3(O)C(=O)C(C(N)=O)=C(O)CC3CC21 (centres unmarked) [CMT-1, 4-dedimethylaminotetracycline]
- IC50 [1]: 92.2 µM
- PLA2-inhibitory activity [1, 4]: significant PLA2 -inhibitory activity
- inhibition of human pancreatic PLA2 [2]: inhibit
- inhibition of porcine pancreatic PLA2 [3]: inhibit

SMILES: CN(C)C1C(=O)C(C#N)=C(O)C2(O)C(=O)C3=C(O)c4c(O)cccc4C(C)(O)C3CC12 (centres unmarked) [CMT-2, tetracyclinonitrile]
- PLA2-inhibitory activity ([1]; even at the highest concentrations tested (range 5-100 μg/ml)): lacked any PLA2 -inhibitory activity

- PLA2-inhibitory activity [1, 4]: significant PLA2 -inhibitory activity
- inhibition of human pancreatic PLA2 [2]: inhibit
- inhibition of porcine pancreatic PLA2 [3]: inhibit
SMILES: NC(=O)C1=C(O)C2(O)C(=O)C3=C(O)c4c(O)cccc4CC3CC2CC1=O (centres unmarked) [CMT-3, 6-demethyl-6-deoxy-4-dedimethylaminotetracycline]

SMILES: CC1(O)c2c(Cl)ccc(O)c2C(=O)C2=C(O)C3(O)C(=O)C(C(N)=O)=C(O)CC3CC21 (centres unmarked) [CMT-4, 4-de-dimethylamino-7-chloro-tetracycline]
- IC50 [1, 5]: 96.4 µM
- PLA2-inhibitory activity [1, 4]: significant PLA2 -inhibitory activity
- inhibition of human pancreatic PLA2 [2]: inhibit
- inhibition of porcine pancreatic PLA2 [3]: inhibit

SMILES: CC1(O)c2cccc(O)c2C(=O)C2=C(O)C3(O)C(=O)C(C(N)=O)=C(O)C(O)C3CC21 (centres unmarked) [CMT-6, 4-hydroxy-4-dedimethylaminotetracycline]
- IC50 [1, 5]: 40.7 µM
- PLA2-inhibitory activity [1, 4]: significant PLA2 -inhibitory activity
- inhibition of human pancreatic PLA2 [2]: inhibit
- inhibition of porcine pancreatic PLA2 [3]: inhibit

SMILES: CN(C)c1ccc(O)c2c1C(C)(O)C1CC3CC(O)=C(C(N)=O)C(=O)C3(O)C(O)=C1C2=O (centres unmarked) [CMT-10, 4-dedimethylamino-7-dimethylaminotetracycline]
- inhibition at 5 µg/mL ([1]; CMT-10 5 μg/ml): 4 ± 4%
- inhibition at 10 µg/mL ([1]; CMT-10 10 μg/ml): 12 ± 2%
- inhibition at 25 µg/mL ([1]; CMT-10 25 μg/ml): 45 ± 1%
- inhibition at 50 µg/mL ([1]; CMT-10 50 μg/ml): 75 ± 2%
- inhibition at 100 µg/mL ([1]; CMT-10 100 μg/ml): 87 ± 2%
- IC50 [1, 5]: 67.5 µM
- PLA2-inhibitory activity [1, 4]: significant PLA2 -inhibitory activity
- inhibition of PLA2 activity ([1]; final concentration of 5 and 10 μg/ml): did not exhibit substantial inhibition
- inhibition of human pancreatic PLA2 [2]: inhibit
- inhibition at 30 µg/mL ([2]; concentration of 30 μg/ml): 66%
